Test results as given in US10213432B2, “Dosage regimen for a PI-3 kinase inhibitor” (NOVARTIS AG, priority 2012, dated 2019).
Read-outs that look alike come from different tables or passages of the source.

Tests used:
[1] = system: Hormone Receptor Positive (+) metastatic breast cancer; assay type: in vivo, human; conditions: in combination with letrozole 2.5 mg/day per oral
Description: An open-label, randomized multi-institution clinical study using the hydrochloride salt of Compound A alone and in combination with the therapeutic agent letrozole for the treatment of post-menopausal patients with Hormone Receptor Positive (+) metastatic breast cancer is investigated. Patients are evaluated for safety profile/tolerability and preliminary antitumor effect.
Patients are included in the study if they meet the following criteria: at least 18 years of age, ECOG performance status 0-1, suffering from clinical stage 1V invasive mammary carcinoma (ER-positive, or PR-positive) by immunohistochemistry, life expectancy equal to or greater than 6 months, adequate hematologic, hepatic and renal function (ANC≥1500/mm^3, platelet count≥100,000 mm^3, HgB≥9 g/dL, creatine≤1.5×upper limits of normal, bilirubin≤1.5×upper limits of normal, SGOT, SGPT≤2.5×upper limits of normal if no liver metasis present or SGOT, SGPT alkaline phosphatase≤5×upper limits of normal if liver metasis present, capable of swallowing and retaining oral medication, disease free of prior invasive cancers for >5 years (exception of basal or squamous cancer of skin or cervical carcinoma in situ). Patients may receive concurrent radiation therapy to painful bone metastases or areas of impending bone fracture as long as radiation therapy is completed≤2 weeks prior to study and recovered from toxicity (≤grade 1) induced by this radiation treatment. Post-menopausal female subjects are defined prior to protocol enrollment by any of the following: Subjects at least 55 years of age; Subjects under 55 years of age and amenorrheic for at least 12 months or follicle-stimulating hormone (FSH) values[…] and estradiol levels≤20 IU/L; prior bilateral oophorectomy; prior radiation castration with amenorrhea for at least 6 months; current use of an LHRH agonist for more than 12 months.
Patients with the following mood disorders as judged by investigator or psychiatrist are also excluded: medically documented history of or active major depressive episode; bipolar disorder (I or II), obsessive-compulsive disorder, schizophrenia, a history of suicidal attempt or ideation, or homicidal ideation (immediate risk of doing harm to others); or ≥CTCAE grade 3 anxiety.
In the first stage of the study, safety and tolerability of the hydrochloride salt of Compound A is evaluated in combination with the therapeutic agent letrozole in post-menopausal patients with Hormone Receptor Positive (+) metastatic breast cancer is investigated. The maximum tolerated dose of the hydrochloride salt of Compound A […] is determined at dosages of 100 mg per oral daily, 80 mg per oral daily, and 50 mg per oral daily, in combination with letrozole administered at 2.5 mg/day per oral.
In the second stage of the study, the antitumor effect of the hydrochloride salt of Compound A in combination with letrozole for the treatment of post-menopausal patients with Hormone Receptor Positive (+) metastatic breast cancer is investigated. Patients are administered the hydrochloride salt of Compound A and letrozole at a daily dosage identified to be with in the MTD in the first stage (Arm A).
In one additional experimental arm (Arm C), Patients are administered a daily dosage of the hydrochloride salt of Compound A in the amount of 60, 80 or 100 mg per oral on Monday through Fridays only each week in combination with 2.5 mg/day per oral letrozole.
Secondary outcome for the second stage is progression free survival and response.
Following the above experiment, 51 patients were accrued, 49 progressed after aromatase inhibitor therapy. Median age was 56 years and 95% of patients ad bone metastasis and 70% visceral metastases.

[2] = system: solid tumors; conditions: humans; Bendell et al., J. Clin. Oncology 2012; cited from earlier work
[3] = Arm C (31): 60, 80 or 100 mg per oral Monday through Fridays only

Nc1cc(C(F)(F)F)c(-c2cc(N3CCOCC3)nc(N3CCOCC3)n2)cn1 [Compound A, 5-(2,6-di-morpholin-4-yl-pyrimidin-4-yl)-4-trifluoromethyl-pyridin-2-ylamine]
Median TTP ([1]; Arm A (20): daily dosing): 4 (2-11) months
Patient outcomes: CR ([1]; Arm A (20): daily dosing): 1
Patient outcomes: PD ([1]; Arm A (20): daily dosing): 7
Patient outcomes: PR ([1]; Arm A (20): daily dosing): 1
Patient outcomes: SD ([1]; Arm A (20): daily dosing): 9
Median TTP [1, 3]: Not reached
Patient outcomes: CR [1, 3]: 0
Patient outcomes: PD [1, 3]: 8
Patient outcomes: PR [1, 3]: 0
Patient outcomes: SD [1, 3]: 4
efficacy in the treatment of solid tumors [2]: has been demonstrated in humans
